Where no end group is shown, it is not given here. [ ]: non-standard residue; d: D form.
Tests used:
dividing A375 cells = assay: Peptide efficacy in culture (MTS), dividing cells; type: cell-based, human; conditions: for IC50: peptide replenished daily for two days, MTS, best fit polynomial, read-out: IC50^div, concentration to kill 50% of dividing cells
Experimental: (§1) Cell lines were treated with chemotherapy, doxorubicin (Sigma, Cat. No. 2252) to induce senescence (200 nM for HCT116, 100 nM for B16-F10 and MCF7, 50 nM for SW480 and DLD-1, 40 nM for A375-Luc/iRFP and MCF10a). MCF7 cells were treated with CDK4/6 inhibitor, palbociclib (Selleck Chemicals: S1116) to induce senescence (5 µM). A375 cells were treated with Braf inhibitor, Dabrafenib (Selleck Chemicals: S2807), to induce senescence (10 µM). Peptide efficacy experiments were performed by seeding 10,000 – 20,000 cells in a 96-well plate. The cells were given doxorubicin twice to make the cells senescent. After removal of doxorubicin, the plate was treated with varying concentrations of peptide. The peptide was replenished daily for two days. Cellular proliferation was quantified using the Promega CellTiter 96™ AQueous One Solution Cell Proliferation Assay (MTS) after 2 hours according to the manufacturer's protocol (Promega, G3581). To control for the charge of ES2, ProteoJuice (Millipore Sigma, 71281) was used to deliver ES2 using the manufacturers protocol, except 50 µL of 2 mM ES2 was mixed with 25 µL of ProteoJuice. Varying concentrations of the mixture were administered to A375 cells along with a control of only ProteoJuice.

[1] = test system: senescent A375 human melanoma cells; assay: Orthotopic xenograft of senescent luciferase A375 cells in mouse ears; type: in vivo; conditions: NSG mouse ears, local injection 50 µL of 5 mg/mL once daily for two days, imaged 24 hours after second treatment; ANOVA p<0.01
Text: (§2) Mice were aged between 3-8 months and 20-30 g in weight and were housed in specific pathogen free cages. Animals were randomly distributed among treatment groups by assigning mice within the same cage to different treatment regimens. To minimise confounders, mouse treatment order was randomised within each cage. Male and female mice were distributed between all treatment groups since the chemicals used were directly injected and are not metabolized. Researchers were not blinded to the group allocation, but all attempts were made to analyse the data without knowing treatment conditions. NOD.Cg-Prkdcscid Il2rgtm1Wjl/SzJ (NSG) were purchased from The Jackson Laboratory (IMSR Cat# JAX:005557, RRID:IMSR_JAX:005557). NOD.Cg-KitW-41J Tyr + Prkdcscid Il2rgtm1Wjl/ThomJ (NBSGW) were purchased from The Jackson Laboratory (IMSR Cat# JAX:026622, RRID:IMSR_JAX:026622). Immunocompromised mice used for these experiments were all in the NSG background; however, some mice were F1 generation of NSG x NBSGW, thus the brown coat colour as NBSGW mice have tyrosinase. Xenografts containing senescent cells were established by injecting A375-Luc/iRFP human melanoma cells which contained a luciferase expressing gene into immunocompromised NSG ears. Senescence was induced in the cells via doxorubicin treatment (40 nM) then resuspended in DMEM prior to injection. Each ear was then injected with 50 µL containing approximately 1,000,000 cells. The ears were treated once daily for two days with 50 µL of either 5 mg/mL peptide, or saline. To control for confounders, each mouse contained one ear treated with saline (control). For imaging, mice were injected with 3 mg luciferin intravenously and imaged before and after treatment. Transgenic mice (BrafCA, PtenloxP, Tyr::CreERT2) were purchased from The Jackson Laboratory (IMSR Cat# JAX:013590, RRID:IMSR_JAX:013590). These mice were maintained on a C57Bl6 background and all experimental mice contained Tyr::CreER with either Braf^CA/+, Pten^fx/+; Braf^CA/CA, Pten^fx/+, or Braf^CA/+, Pten^fx/fx. […] Hypopigmented melanomas sporadically formed over the next 3-5 months, typically on the back of the mouse. These melanomas were then directly injected with 100 µL of either 20 mg/mL ES2+10%DMSO, saline+10%DMSO, saline+10%Dabrafenib, or 20 mg/mL ES2+10%Dabrafenib. The researchers were not blinded to the experiment, but each mouse contained an internal control and all imaging was done with the same exposure times based upon control tissue. For survival analyses, either 750,000 or 25,000 A375-Luc/iRFP cells were injected intradermally into NSG mice. Different combinations of drugs were locally injected to the region once daily for two days with 50 µL of either 5 mg/mL ES2, 10%Dabrafenib, or 5mg/mL ES2+10%Dabrafenib. Dabrafenib was made at 100 mg/mL in DMSO. Mice were then monitored daily and allowed to age until a humane endpoint was reached according to our IACUC protocol, which in this case was tumours of 2 cm in size. Aged C57Bl6 male mice were purchased from the Jackson Laboratory (IMSR Car# JAX:000664, RRID:IMSR_JAX:000664) at 72 weeks of age and were started on the experiment at 82 weeks. Mice were treated with 3 mg of ES2 via tail vein injection weekly for three weeks and weighed weekly. Blood was drawn prior to beginning experiments and at the endpoint. To generate plasma, blood was centrifuged at 1,500g for 10 minutes, then 2,500g for 10 minutes, then frozen for later analyses. […]

senescent A375 cells = assay: Peptide efficacy in culture (MTS), senescent cells; type: cell-based, human; conditions: for IC50: doxorubicin (40 nM)-induced senescent A375 cells, peptide replenished daily for two days, MTS, best fit polynomial, read-out: IC50^sen, concentration to kill 50% of senescent cells; for senolytic activity (in words): senescent vs dividing A375 cells
Experimental: as §1

[2] = test system: Braf/Pten sporadic melanomas; assay: TUNEL staining of melanomas in transgenic mice; type: in vivo, mouse; conditions: intratumoural injection daily over two days, single agents vs saline
Experimental: Fixed frozen sections of melanomas were stained with the Click-IT Plus TUNEL assay (ThermoFisher C10618) according to the manufacturer's protocol. Stained sections were imaged with a Zeiss A2 upright microscope at either 20x or 10x. At least one of each treatment group were stained and imaged at the same time. All sections from each staining group were set to the same exposure time for TUNEL and DAPI. Any normalization of background levels was performed in Adobe Photoshop and set to the same scale for the entire image and for all other images.

[3] = test system: Braf/Pten sporadic melanomas; assay: SA-β-gal staining of melanomas in transgenic mice; type: in vivo, mouse
Experimental: Senescent and dividing cells or tissue sections were fixed with 4% formaldehyde. The cells were washed with PBS twice before staining with X-gal solution [1 mg/mL 5-bromo-4-chloro-3inolyl-β-D-galactoside (Boehringer Manneheim #745-740) in N,N-dimethylformamide, 5 mM potassium ferricyanide crystalline (#P-8131), 5 mM potassium […] (#P-3289), 2 mM magnesium chloride, and 1x PBS, pH 6.0. Cells or tissue sections were incubated at 37°C for 24 hours. After staining, cells were washed with PBS before being counted and imaged on the Leica Dmi8 microscope.
Mice were aged between 3-8 months and 20-30 g in weight and were housed in specific pathogen free cages. Animals were randomly distributed among treatment groups by assigning mice within the same cage to different treatment regimens. To minimise confounders, mouse treatment order was randomised within each cage. Male and female mice were distributed between all treatment groups since the chemicals used were directly injected and are not metabolized. Researchers were not blinded to the group allocation, but all attempts were made to analyse the data without knowing treatment conditions. […] Mice were then monitored daily and allowed to age until a humane endpoint was reached according to our IACUC protocol, which in this case was tumours of 2 cm in size. […]

[4] = test system: dividing A375 human melanoma cells; assay: Survival study, orthotopic A375 xenograft; type: in vivo, mouse; conditions: local injection once daily for two days
Text: as §2, with “Different combinations of drugs were locally injected to the region once daily for two days with 50 µL of either 5 mg/mL ES2, 10%Dabrafenib, or 5mg/mL ES2+10%Dabrafenib. Dabrafenib was made at 100 mg/mL in DMSO.” left out, “size.” for “size. Aged C57Bl6 male mice were purchased from the Jackson Laboratory (IMSR Car# JAX:000664, RRID:IMSR_JAX:000664) at 72 weeks of age and were started on the experiment at 82 weeks. Mice were treated with 3 mg of ES2 via tail vein injection weekly for three weeks and weighed weekly. Blood was drawn prior to beginning experiments and at the endpoint. To generate plasma, blood was centrifuged at 1,500g for 10 minutes, then 2,500g for 10 minutes, then frozen for later analyses.”

| Compound | luciferase signal compared to E1 and saline [1] | IC50 (dividing A375 cells) [µM] | IC50 (senescent A375 cells) [µM] | senolytic activity (in words) (senescent A375 cells) | other results |
| --- | --- | --- | --- | --- | --- |
| [dL][dT][dL][dR][dK][dE][dP][dA][dS][dE][dI][dA][dQ][dS][dI][dL][dE][dA][dY][dS][dQ][dN]G[dW][dA][dN][dR][dR][dS]GG[dK][dR][dP][dP][dP][dR][dR][dR][dQ][dR][dR][dK][dK][dR]G [FOXO4-DRI, reference compound] | statistically significantly reduced luciferase signal | – | – | – | lytic activity in dividing cells (in words) (dividing A375 cells): minimal lytic activity in dividing cells |
| YGRKKRRQRRRYGRKKRRQRRRYGRKKRRQRRR [ES1] | statistically significantly reduced luciferase signal | ~19 | ~4 | highest senolytic activity | – |
| H-GRKKRRQRRRPPPRKGGSRRRAWGNQRYARLIRQAIESAPEKRLTLA-OH [E1] | – | – | – | negligible senolytic activity | – |
| PRKGGRRRRAWGRRRRRRRLRRRLRRAPRKRLTLA [ES2r1] | statistically significantly reduced luciferase signal | ~13 | ~6 | highest senolytic activity | – |
| PRKGGSRRRAWGRRRYRRRLRRRLRRAPRKRLTLA [ES2r2] | statistically significantly reduced luciferase signal | > 20 | ~9 | slightly lower senolytic activity | – |
| CC(C)(C)c1nc(-c2cccc(NS(=O)(=O)c3c(F)cccc3F)c2F)c(-c2ccnc(N)n2)s1 [Dabrafenib] | – | – | – | – | effect on apoptosis (TUNEL), in words [2]: no effect on apoptosis; effect on apoptosis (TUNEL), in words ([2]; listed as Dab): no difference; increase of fraction of SA-β-gal+ cells within the melanoma over saline ([3]; Dabrafenib n=8, saline n=5, p<0.001): 11 fold; senescence of the melanoma compared to vehicle, in words ([3]; intratumoural injection daily over two days): strongly induced senescence; effect on survival time, in words ([4]; 25,000 A375 cells): no effect on survival time; effect on survival time, in words ([4]; 750,000 A375 cells): did not alter survival times |

Reference: paper PMC8546421, “Molecular modelling of the FOXO4-TP53 interaction to design senolytic peptides for the elimination of senescent cancer cells” (EBioMedicine, 2021)
